# Assays:
# CCRF S-180 = assay: Antitumor activity against mouse S180 cells implanted in mouse assessed as tumor growth inhibition at 7.5 mg/kg, ip qd treated for 7 consecutive days starting from 24 hrs post tumor inoculum relative to control; assay type: functional; settings: CCRF S-180, ip, read-out: TGI
# [1] = tested on: Lewis lung carcinoma cell line; assay: Antitumor activity against mouse LLC cells implanted in mouse assessed as tumor growth inhibition at 7.5 mg/kg, ip qd treated for 7 consecutive days starting from 24 hrs post tumor inoculum relative to control; assay type: functional; settings: read-out: TGI
# HGC-27 = assay: Cytotoxicity against human HGC27 cells assessed as reduction in cell viability after 48 hrs by MTT assay; assay type: functional, cell-based; settings: HGC-27, 48 h
# HepG2 [2] = assay: Antiproliferative activity against human HepG2 cells at 4 uM after 48 hrs by MTT assay relative to control; assay type: functional
# HepG2 [3] = assay: Antiproliferative activity against human HepG2 cells at 5 uM after 48 hrs by MTT assay relative to control; assay type: functional
# [4] = molecular target: NAD-dependent protein deacylase sirtuin-5, mitochondrial (Homo sapiens) (UniProt Q9NXA8); assay: Inhibition of SIRT5 (unknown origin) at 100 uM relative to control
# [5] = molecular target: NAD-dependent protein deacylase sirtuin-5, mitochondrial (Homo sapiens) (UniProt Q9NXA8); assay: Inhibition of SIRT5 (unknown origin) at 30 uM relative to control
# SMMC-7721 = assay: Antiproliferative activity against human SMMC7721 cells after 48 hrs by MTT assay; assay type: functional, cell-based; settings: SMMC-7721, 48 h
# Chain of NAD-dependent protein deacylase sirtuin-5, mitochondrial (Homo sapiens) (Q9NXA8 37-310 limits assumed): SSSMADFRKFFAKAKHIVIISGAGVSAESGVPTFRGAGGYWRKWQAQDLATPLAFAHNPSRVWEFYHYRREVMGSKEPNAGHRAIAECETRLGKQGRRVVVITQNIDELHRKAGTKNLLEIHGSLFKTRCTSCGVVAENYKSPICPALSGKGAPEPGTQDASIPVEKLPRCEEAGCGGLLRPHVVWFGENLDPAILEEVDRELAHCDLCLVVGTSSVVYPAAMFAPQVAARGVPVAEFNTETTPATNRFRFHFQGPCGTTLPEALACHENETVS
structure (smiles),measurement,setting,value
COc1cc(-c2nc(Cn3cc(CN4C(=O)c5ccc(C)cc5C4=O)nn3)cc3c2[nH]c2ccccc23)cc(OC)c1OC,inhibition in vivo at 7.5 mg/kg,CCRF S-180,40%
same,inhibition in vivo at 7.5 mg/kg,[1],46.9%
same,IC50,HGC-27,5.44 µM
CCCN(Cc1ccc(C(=O)NO)cc1)C(=O)c1cc2c([nH]c3ccccc32)c(-c2ccc(OC)cc2)n1,Activity,HepG2 [2],61.8%
same,Activity,HepG2 [3],34.5%
O=C(NCCn1c2ccccc2c2ccncc21)Nc1ccc(C(=O)O)cc1,inhibition,[4],52%
same,inhibition,[5],35%
Cc1nc(C(=O)NCCCCCNC(=O)c2ccccc2O)cc2c1[nH]c1ccccc12,IC50,SMMC-7721,6.97 µM

# Source: ChEMBL document CHEMBL4325913, “Norharmane as a potential chemical entity for development of anticancer drugs” (Eur J Med Chem, 2019)
